Legend:
Format in all cases: cell-based
human TLR7 = assay: TLR7 cellular NFκB-luc reporter assay in transiently transfected HEK293 cells; conditions: lowest effective concentration, 6 hours incubation
Procedure: (§1) The ability of compounds to activate human TLR7 and/or TLR8 was assessed in a cellular reporter assay using HEK293 cells transiently transfected with a TLR7 or TLR8 expression vector and NFκB-luc reporter construct. In one instance the TLR expression construct expresses the respective wild type sequence or a mutant sequence comprising a deletion in the second leucine-rich repeat of the TLR.
(§2) Briefly, HEK293 cells were grown in culture medium (DMEM supplemented with 10% FCS and 2 mM Glutamine). For transfection of cells in 10 cm dishes, cells were detached with Trypsin-EDTA, transfected with a mix of CMV-TLR7 or TLR8 plasmid (750 ng), NFκB-luc plasmid (375 ng) and a transfection reagent and incubated overnight at 37° C. in a humidified 5% CO2 atmosphere. Transfected cells were then detached with Trypsin-EDTA, washed in PBS and resuspended in medium to a density of 1.67×10^5 cells/mL. Thirty microliters of cells were then dispensed into each well in 384-well plates, where 10 μL of compound in 4% DMSO was already present. Following 6 hours incubation at 37° C., 5% CO2, the luciferase activity was determined by adding 15 μl of Steady Lite Plus substrate (Perkin Elmer) to each well and readout performed on a ViewLux ultraHTS microplate imager (Perkin Elmer). Dose response curves were generated from measurements performed in quadruplicates. Lowest effective concentrations (LEC) values, defined as the concentration that induces an effect which is at least two fold above the standard deviation of the assay, were determined for each compound.

human TLR8 = assay: TLR8 cellular NFκB-luc reporter assay in transiently transfected HEK293 cells; conditions: lowest effective concentration, 6 hours incubation
Procedure: as §1, §2

PBMC-IFNa = assay: PBMC-IFNa; conditions: Table IIC; lowest effective concentration; read-out: PBMC-IFNa (LEC)

SMILES	Human TLR7 (LEC, μM) (human TLR7; Table II B) [µM]	Human TLR8 (LEC, μM) (human TLR8; Table II B) [µM]	Human TLR7 (LEC, μM) (human TLR7; Table II A) [µM]	Human TLR8 (LEC, μM) (human TLR8; Table II A) [µM]	Human TLR7 (LEC, μM) (human TLR7; Table IIC) [µM]	minimal effective concentration (PBMC-IFNa) [µM]	Human TLR8 (LEC, μM) (human TLR8; Table IIC) [µM]
CCCCNc1nc(N)nc2c1CN(C(=O)C1CCC1)CC2 [Compound 1]	0.83	0.32					
CCCCNc1nc(N)nc2c1CCN(C(=O)c1ccccc1)C2 [Compound 2]			3.96	0.75			
CCCCNc1nc(N)nc2c1CCN(C(=O)c1cccn1C)C2 [Compound 3]			0.79	0.60			
CCCCNc1nc(N)nc2c1CCN(C(=O)C1CC1)C2 [Compound 4]			6.82	0.47			
CCCCNc1nc(N)nc2c1CN(C(C)=O)CC2 [Compound 5]	4.90	0.50					
CCCCNc1nc(N)nc2c1CN(C(=O)Cc1cccs1)CC2 [Compound 6]	3.45	0.88					
CCCCNc1nc(N)nc2c1CN(C(=O)C(C)C)CC2 [Compound 7]	8.13	1.62					
CCCCNc1nc(N)nc2c1CN(C(=O)CC)CC2 [Compound 8]	2.34	0.40					
CCCCNc1nc(N)nc2c1CCN(C(=O)Cc1cccs1)C2 [Compound 9]			1.60	0.46			
CCCCNc1nc(N)nc2c1CCN(C(=O)c1cc(C)n(C)n1)C2 [Compound 10]			2.04	0.71			
CCCCNc1nc(N)nc2c1CCN(C(=O)C1CCC1)C2 [Compound 11]			2.10	0.51			
CCCCNc1nc(N)nc2c1CCN(C(=O)c1cccs1)C2 [Compound 12]			2.40	0.36			
CCCCNc1nc(N)nc2c1CCN(C(=O)C(C)C)C2 [Compound 13]			3.21	0.85			
CCCCNc1nc(N)nc2c1CCN(C(=O)c1cscn1)C2 [Compound 14]			4.43	0.90			
CCCCNc1nc(N)nc2c1CCN(C(=O)c1csc(N)n1)C2 [Compound 15]			4.66	1.31			
CCCCNc1nc(N)nc2c1CCN(C(=O)COC)C2 [Compound 16]			5.37	1.49			
CCCCNc1nc(N)nc2c1CCN(C(C)=O)C2 [Compound 17]			5.82	0.43			
CCCCNc1nc(N)nc2c1CCN(C(=O)c1nccn1C)C2 [Compound 18]			6.16	0.96			
CCCCNc1nc(N)nc2c1CCN(C(=O)c1ccccn1)C2 [Compound 19]			6.59	0.83			
CCCCNc1nc(N)nc2c1CCN(C(=O)c1sccc1Cl)C2 [Compound 20]			7.15	0.68			
CCCCNc1nc(N)nc2c1CCN(C(=O)c1ccsc1)C2 [Compound 21]			8.13	1.85			
CCCCNc1nc(N)nc2c1CCN(C(=O)c1cnccn1)C2 [Compound 22]			9.35	1.37			
CCCCNc1nc(N)nc2c1CCN(C(=O)CC#N)C2 [Compound 23]			11.62	2.67			
CCCCNc1nc(N)nc2c1CCN(C(=O)CC(F)(F)F)C2 [Compound 24]			12.93	2.29			
CCCCNc1nc(N)nc2c1CCN(C(=O)[C@@H](N)C(C)C)C2 [Compound 25]					20.0	1.1	1.8
CCCCNc1nc(N)nc2c1CCN(C(=O)[C@H](C)N)C2 [Compound 26]					16.8	0.6	2.1

SMILES	Human TLR7 (LEC, μM) (human TLR7; Table II B) [µM]	Human TLR8 (LEC, μM) (human TLR8; Table II B) [µM]	Human TLR7 (LEC, μM) (human TLR7; Table II A) [µM]	Human TLR8 (LEC, μM) (human TLR8; Table II A) [µM]	Human TLR7 (LEC, μM) (human TLR7; Table IIC) [µM]	minimal effective concentration (PBMC-IFNa) [µM]	Human TLR8 (LEC, μM) (human TLR8; Table IIC) [µM]
CCCCNc1nc(N)nc2c1CCN(C(=O)c1csnn1)C2 [Compound 27]					>25	1.2	1.9
CCCCNc1nc(N)nc2c1CCN(C(=O)c1ccncc1)C2 [Compound 28]					8.6	1.9	2.2
CCCCNc1nc(N)nc2c1CCN(C(=O)C1CCOCC1)C2 [Compound 29]					>25	8.7	7.5
CCCCNc1nc(N)nc2c1CCN(C(=O)CC)C2 [Compound 30]					5.0	0.5	0.5
CCCCNc1nc(N)nc2c1CN(C(=O)C1CCOCC1)CC2 [Compound 31]					7.7	1.3	0.6
CCCCNc1nc(N)nc2c1CN(C(=O)CC#N)CC2 [Compound 32]					7.1	0.9	0.6
CCCCNc1nc(N)nc2c1CN(C(=O)c1ccsc1)CC2 [Compound 33]					0.3	0.2	0.2
CCCCNc1nc(N)nc2c1CN(C(=O)c1cc(C)on1)CC2 [Compound 34]					0.8	0.2	0.4
CCCCNc1nc(N)nc2c1CN(C(=O)c1cocn1)CC2 [Compound 35]					0.7	0.2	0.2
CCCCNc1nc(N)nc2c1CCN(C(=O)c1cocn1)C2 [Compound 36]					4.7	0.6	0.9
CCCCNc1nc(N)nc2c1CCN(C(=O)c1nccc3ccccc13)C2 [Compound 37]					7.2	1.8	1.7
CCCCNc1nc(N)nc2c1CCN(C(=O)c1cc(C)on1)C2 [Compound 38]					5.2	0.6	0.8
CCC[C@@H](CCO)Nc1nc(N)nc2c1CN(C(=O)c1ccccc1)CC2 [Compound 39]					2.5	0.5	4.2
CCC[C@@H](CCO)Nc1nc(N)nc2c1CN(C(=O)c1cscn1)CC2 [Compound 40]					2.2	0.2	4.5
CCC[C@@H](CCO)Nc1nc(N)nc2c1CN(C(=O)c1ccco1)CC2 [Compound 41]					0.4	0.1	0.4
CCC[C@@H](CCO)Nc1nc(N)nc2c1CN(C(=O)c1csc(C)n1)CC2 [Compound 42]					2.2	0.2	2.1
CCCC[C@@H](CCO)Nc1nc(N)nc2c1CN(C(=O)c1ccco1)CC2 [Compound 43]					0.1	0.04	0.7
CCCC[C@@H](CCO)Nc1nc(N)nc2c1CN(C(=O)c1csc(C)n1)CC2 [Compound 44]					1.0	0.2	6.6
CCCC[C@@H](CCO)Nc1nc(N)nc2c1CN(C(=O)c1cccs1)CC2 [Compound 45]					0.2	0.2	1.7
CCCC[C@@H](CCO)Nc1nc(N)nc2c1CN(C(=O)c1cscn1)CC2 [Compound 46]					0.6	0.2	3.5
CCC[C@@H](CCO)Nc1nc(N)nc2c1CN(C(=O)c1cccs1)CC2 [Compound 47]					0.2	0.2	1.1
CCCC[C@@H](CCO)Nc1nc(N)nc2c1CN(C(=O)c1ccccc1)CC2 [Compound 48]					1.2	0.3	3.9
CCC[C@@H](CCO)Nc1nc(N)nc2c1CCN(C(=O)c1cccn1C)C2 [Compound 49]					2.7	0.3	4.0
CCCC[C@@H](CCO)Nc1nc(N)nc2c1CCN(C(=O)c1cccn1C)C2 [Compound 50]					1.7	0.3	3.9
CCCC[C@@H](CCO)Nc1nc(N)nc2c1CN(C(=O)c1cccn1C)CC2 [Compound 51]					0.5	0.1	0.4
CCC[C@@H](CCO)Nc1nc(N)nc2c1CCN(C(=O)c1ccncc1)C2 [Compound 52]					12.1		15

— US9365571B2, “Piperidino-pyrimidine derivatives for the treatment of viral infections” (Janssen Sciences Ireland UC, priority 2012, dated 2016)
